Data reported in patent publication US7838522B2, “Benzothiazole formulations and use thereof” (Ares Trading S.A., priority 2004, dated 2010).

Assay: Pharmacokinetic profile after oral administration in Beagle dogs
Format: in vivo
Details: dog, plasma, 10.6 mg/kg, Compound A in Water for Injection
Description: Macrogol Glyceride formulations were orally administered in Beagle dogs as extemporaneous suspension in PBS at a dose of 10.6 mg/kg following the protocol below, by gavage in a volume of 2 mL/kg and bulk formulation by forced introduction into the throat.
The formulations were administered to the animals which had fasted overnight (i.e. for about 16 hours) before treatment, food was allowed again 4 hours after treatment.
Macrogol Glyceride formulations (1) and (2) were orally administered as described above. A wash-out interval between the administration of formulation (1) and of formulations (2) was of at least 1 week.
6 Beagle dogs (3 males and 3 females) of about 10-13 kg of bodyweight and of age 9 to 12 months were used. Animals were weighed fasted before administration and the body weight recorded.
Blood (at least 2.5 ml) was collected from a jugular vein into heparinised tubes before and after dosing, at the following 15 times:
Blood was centrifuged within 15 min at about 2500 g at +4° C. for 10 min. Blood cells were discharged and plasma obtained was divided into 3 aliquots (at least 0.3 mL each). The plasma concentrations of Compound A (free base of Compound A, mesylate) in the unknown dog plasma samples was determined by a High Performance Liquid Chromatography/Mass Spectrometry (HPLC/MS). […]

bioavailability: < 15%
SMILES: N#CC(c1ccnc(OCc2ccc(CN3CCOCC3)cc2)n1)c1nc2ccccc2s1 (stereo not shown) [Compound A, 1,3 benzothiazol-2-yl-[2-(4-morpholin-4-ylmethyl-benzyloxy)-pyrimidin-4-yl]-acetonitrile]
